Holding throughout (type): cell-based
The test system of test [1] is Bacillus subtilis MBI-600. As to the kind of experiment: Culture of Bacillus subtilis with sporulation-inhibiting and sporulation-accelerating substances, 45 hours (Example 2). As to the method: (§1) Using a 500 ml Erlenmeyer flask (with baffles), each 100 ml of media listed in Table 1 was prepared and then autoclave sterilization was carried out. Note that glucose was separately sterilized and aseptically mixed in order to avoid Maillard reaction.
Test sections were set as described in Table 3. According to the conditions of each test section, the filter-sterilized aqueous solution of each sporulation-inhibiting substance was added aseptically to each medium. According to the conditions of each test section, one loopful of Bacillus subtilis MBI-600 was taken from a colony grown on a nutrient agar medium, inoculated, and then cultured with shaking at 30° C. and 150 rpm.
Sixteen (16) hours after the start of culture, each sporulation-accelerating substance was added according to the conditions of each test section, culture was continued. Forty-five (45) hours after the start of culture, culture was stopped.
(§2) Each of the thus obtained culture liquid was diluted 10-fold with sterile water, and then the bacterial cell concentration (vegetative cells and spores) and the sporulation rate (spore concentration/bacterial cell concentration) were measured using an optical microscope and a bacterial cell counter.

In test [2] the test system is Bacillus thuringiensis NBRC 101235 strain. As to the kind of experiment: Culture of Bacillus thuringiensis with sporulation-inhibiting substance, 40 hours (Example 3). The settings on record: for Bacterial cell concentration / Spore concentration / Sporulation rate: 40 hours culture. As to the method:
as §1
According to the conditions of each test section, the filter-sterilized aqueous solution of each sporulation-inhibiting substance was added aseptically to each medium. According to the conditions of each test section, one loopful of Bacillus thuringiensis NBRC 101235 strain was taken from a colony grown on a nutrient agar medium, inoculated, and then cultured with shaking at 30° C. and 150 rpm for 40 hours.
as §2

Test [3] deals with Bacillus subtilis MBI-600. As to the kind of experiment: Culture of Bacillus subtilis with sporulation-inhibiting substance, 64 hours (Example 1). To be noted: for Spore concentration / Sporulation rate / Bacterial cell concentration: 64 hours culture; for bacterial cell concentrations as the concentration of the substance increased: trend over tested concentrations. The protocol: Using a 500 ml Erlenmeyer flask (with baffles), each 100 ml of media listed in Table 1 was prepared and then autoclave sterilization was carried out. Glucose was separately sterilized and aseptically mixed in order to avoid Maillard reaction.
According to the conditions of each test section, the filter-sterilized aqueous solution of each sporulation-inhibiting substance was added aseptically to each medium. One loopful of Bacillus subtilis MBI-600 was taken from a colony grown on a nutrient agar medium, inoculated, and then cultured with shaking at 30° C. and 150 rpm for 64 hours.
as §2

Where [4] appears, read: sporulation-accelerating substance 3,000 ppm added at 16 hours, no inhibiting substance, 45 hours culture.
Setting [5] is: 1.4 ppm plus decoyinine 200 ppm at 16 hours, 45 hours.
[6] abbreviates: 1.4 ppm, no accelerating substance, 45 hours.
Where [7] appears, read: 0.3 ppm plus ammonium lactate 3,000 ppm at 16 hours, 45 hours.
The mark [8] stands for this setting: 0.3 ppm, no accelerating substance, 45 hours.
Setting [9] is: 0.5 ppm plus ammonium acetate 2,000 ppm at 16 hours, 45 hours.
Where [10] appears, read: 0.5 ppm plus ammonium acetate 3,000 ppm at 16 hours, 45 hours.
The mark [11] stands for this setting: 0.5 ppm plus ammonium acetate 4,000 ppm at 16 hours, 45 hours.
[12] abbreviates: 0.5 ppm plus ammonium lactate 3,000 ppm at 16 hours, 45 hours.
Where [13] appears, read: 0.5 ppm, no accelerating substance, 45 hours.
[14] abbreviates: 1.0 ppm, no accelerating substance, 45 hours.
Where [15] appears, read: 2.0 ppm, no accelerating substance, 45 hours.

Experimental findings from US11512280B2, “Method for culturing spore-forming bacteria, and method for producing useful substance” (priority 2016, dated 2022) are described below.

Molecules are shown by their SMILES.

On to `CC(=O)O.N` [Ammonium acetate], for which the “bacterial cell concentration and sporulation rate as the amount of ammonium acetate added increased” value in test [1] (lincomycin 0.5 ppm with ammonium acetate) was “increased”. Moreover, in test [1] (lincomycin 0.5 ppm with ammonium acetate added), the “spore productivity compared with test sections in which no such substance had been added” value is “significantly higher”. In test [1] (setting [4]), the Bacterial cell concentration stood at 4.6e+09 mL⁻¹, the Spore concentration was found to be 4.2e+09 mL⁻¹ and the Sporulation rate stood at 91%.

On to `CC(O)C(=O)O.N` (centres unmarked) [Ammonium lactate], for which the “sporulation rate compared with test sections in which no accelerating substance had been added” value in test [1] (ammonium lactate added, regardless of the lincomycin concentration) is reported as “improvement was observed”. Further, the “spore productivity compared with test sections in which no such substance had been added” value in test [1] (lincomycin 0.3 ppm and 0.5 ppm with ammonium lactate added) is reported as “significantly higher”. In addition, in test [1] (setting [4]), the Bacterial cell concentration was 5.2e+09 mL⁻¹, the Spore concentration was 4.8e+09 mL⁻¹ and the Sporulation rate turned out to be 91%.

As to `O=C(N[C@H](CO)[C@H](O)c1ccc([N+](=O)[O-])cc1)C(Cl)Cl` [Chloramphenicol], in test [2] (2.0 ppm), the “bacterial cell concentration and spore concentration” value is reported as “tended to increase”; the Bacterial cell concentration is 1.6e+09 mL⁻¹; the Spore concentration is 1.3e+09 mL⁻¹; the Sporulation rate came out at 79%. For the same compound, in test [2] (6.0 ppm), the “the growth and the effect of inhibiting sporulation” value was “confirmed”; the Bacterial cell concentration worked out at 8e+06 mL⁻¹; the Sporulation rate worked out at 0%. Moreover, the “effect of inhibiting sporulation” value in test [1] (1.4 ppm) is “observed”. For the same compound, in test [1] (setting [5]), the Bacterial cell concentration came to 5.4e+09 mL⁻¹, the Spore concentration came to 4.1e+09 mL⁻¹ and the Sporulation rate stood at 76%. Further, in test [1] (setting [6]), the Bacterial cell concentration was determined as 5.4e+09 mL⁻¹ and the Sporulation rate is 0%. For the same compound, the “spore productivity compared with test sections in which no such substance had been added” value in test [1] (chloramphenicol 1.4 ppm, both test sections (with and without decoyinine)) is on record as “improved”.

Take `C=C1O[C@@](CO)(n2cnc3c(N)ncnc32)[C@H](O)[C@@H]1O` [Decoyinine]: the Sporulation rate result in test [1] (decoyinine added during culture in addition to chloramphenicol 1.4 ppm) is recorded as “improvement was observed”.

In the case of `CCC[C@@H]1C[C@@H](C(=O)N[C@@H]([C@H]2O[C@H](SC)[C@H](O)[C@@H](O)[C@H]2O)[C@@H](C)O)N(C)C1` [Lincomycin], the Bacterial cell concentration in test [2] (5.0 ppm) was found to be 1.4e+09 mL⁻¹; in test [2] (10.0 ppm), 1.4e+09 mL⁻¹; in test [2] (12.5 ppm), 9e+08 mL⁻¹; in test [3] (0.1 ppm added, carbon content 9.1 g/L), 4.7e+09 mL⁻¹; in test [3] (1.0 ppm added) it was 7e+09 mL⁻¹; in test [1] (setting [7]) it was 5.6e+09 mL⁻¹. Further, the Bacterial cell concentration in test [1] (setting [8]) came to 3.3e+09 mL⁻¹; in test [1] (setting [9]), 6.4e+09 mL⁻¹; in test [1] (setting [10]) it was 7.6e+09 mL⁻¹; in test [1] (setting [11]), 8.4e+09 mL⁻¹; in test [1] (setting [12]), 7.2e+09 mL⁻¹; in test [1] (setting [13]) it was 4.4e+09 mL⁻¹. The Bacterial cell concentration in test [1] (setting [14]) was found to be 5.1e+09 mL⁻¹; in test [1] (setting [15]), 5.9e+09 mL⁻¹. In addition, the Spore concentration in test [2] (5.0 ppm) turned out to be 1.2e+09 mL⁻¹; in test [2] (10.0 ppm), 1e+09 mL⁻¹; in test [2] (12.5 ppm), 1e+08 mL⁻¹; in test [3] (0.1 ppm added), 4.7e+09 mL⁻¹; in test [1] (setting [7]), 5.1e+09 mL⁻¹; in test [1] (setting [8]), 2.7e+09 mL⁻¹. The Spore concentration in test [1] (setting [9]) was 4.1e+09 mL⁻¹; in test [1] (setting [10]), 5.4e+09 mL⁻¹; in test [1] (setting [11]), 6.1e+09 mL⁻¹; in test [1] (setting [12]), 5.7e+09 mL⁻¹. Also, the Sporulation rate amounted to 86% in test [2] (5.0 ppm); 71% in test [2] (10.0 ppm); 13% in test [2] (12.5 ppm); 100% in test [3] (0.1 ppm added); 0% in test [3] (1.0 ppm added); 91% in test [1] (setting [7]). Further, the Sporulation rate in test [1] (setting [8]) was 80%; in test [1] (setting [9]), 64%; in test [1] (setting [10]), 71%; in test [1] (setting [11]) it was 72%; in test [1] (setting [12]) it was 79%; in test [1] (setting [13]), 0%. Also, the Sporulation rate in test [1] (setting [14]) and in test [1] (setting [15]) was 0% throughout. In test [2] (10.0 ppm or lower), the “bacterial cell concentration and spore concentration” value was “tended to increase”. The “effect of inhibiting sporulation” value in test [2] (12.5 ppm) is “confirmed”; in test [3] (0.1 ppm), “not observed”; in test [3] (1 ppm), “observed”; in test [1] (0.3 ppm) it was “not observed”; in test [1] (0.5 ppm or more), “observed”. Moreover, the “bacterial cell concentrations as the concentration of the substance increased” value in test [3] and in test [1] (trend over tested concentrations) was “tended to increase” each time.

Consider `[H]/N=C(/N)N[C@H]1[C@H](O)[C@@H](O)[C@H](O[C@@H]2O[C@@H](C)[C@](O)(C=O)[C@H]2O[C@@H]2O[C@@H](CO)[C@H](O)[C@@H](O)[C@@H]2NC)[C@@H](N/C(N)=N\[H])[C@@H]1O` [Streptomycin], for which the “effect of inhibiting sporulation” value in test [3] (12.5 ppm) is listed as “not observed”. Moreover, in test [3] (12.5 ppm added), the Bacterial cell concentration turned out to be 4.3e+09 mL⁻¹, the Spore concentration was 4.3e+09 mL⁻¹ and the Sporulation rate was 100%. Moreover, the “effect of inhibiting sporulation” value in test [3] (15.0 ppm) is on record as “observed”. Besides, in test [3] (15.0 ppm added), the Bacterial cell concentration came to 5.5e+09 mL⁻¹, the Spore concentration came out at 3e+09 mL⁻¹ and the Sporulation rate was determined as 54%. In addition, the “bacterial cell concentrations as the concentration of the substance increased” value in test [3] is reported as “tended to increase”.
